The record followed here is patent publication US20150344457A1, “METHODS OF INHIBITING PRMT5” (EPIZYME, INC., priority 2012, published 2015).

One assay has as its target T1, PRMT5/MEP50 (Homo sapiens, UniProt O14744).
T1 construct: Expressed full-length human Flag-PRMT5/6His-MeP50 protein complex was purified; made in house; host or cells: Spodoptera frugiperda (SF9) insect cells, baculovirus (pDEST8)
The assay can be described thus: PRMT5 Biochemical Assay (PRMT5/MEP50 enzyme assay on peptide substrate, 3H-SAM Flashplate). Conditions: read-out: Biochemical IC50.

Another assay concerns Z-138 cells. The assay can be described thus: Z-138 Proliferation Assay (Cell Titer Glo, 5 days). Format: cell-based. Conditions: Homo sapiens, Table D-2. An excerpt:
Z-138 Proliferation Assay
Z-138 suspension cells were purchased from ATCC (American Type Culture Collection, Manassas, Va.). RPMI/Glutamax medium, penicillin-streptomycin, heat inactivated fetal bovine serum were purchased from Life Technologies, Grand Island, N.Y., USA. V-bottom polypropylene 384-well plates were purchased from Greiner Bio-One, Monroe, N.C., USA. Cell culture 384-well white opaque plates were purchased from Perkin Elmer, Waltham, Mass., USA. Cell-Titer Gb® was purchased from Promega Corporation, Madison, Wis., USA. SpectraMax M5 plate reader was purchased from Molecular Devices LLC, Sunnyvale, Calif., USA.
Z-138 suspension cells were maintained in growth medium (RPMI 1640 supplemented with 10% v/v heat inactivated fetal bovine serum and cultured at 37° C. under 5% CO2. Under assay conditions, cells were incubated in assay medium (RPMI 1640 supplemented with 10% v/v heat inactivated fetal bovine serum and 100 units/mL penicillin-streptomycin) at 37° C. under 5% CO2.
For the assessment of the effect of compounds on the proliferation of the Z-138 cell line, exponentially growing cells were plated in 384-well white opaque plates at a density of 10,000 cells/ml in a final volume of 50 μl of assay medium. A compound source plate was prepared by performing triplicate nine-point 3-fold serial dilutions in DMSO, beginning at 10 mM (final top concentration of compound in the assay was 20 μM and the DMSO was 0.2%). A 100 nL aliquot from the compound stock plate was added to its respective well in the cell plate. […] After addition of compounds, assay plates were incubated for 5 days at 37° C., 5% CO2, relative humidity >90%.
Cell viability was measured by quantitation of ATP present in the cell cultures, adding 35 μl of Cell Titer Glo® reagent to the cell plates. Luminescence was read in the SpectraMax M5 microplate reader. The concentration of compound inhibiting cell viability by 50% was determined using a 4-parametric fit of the normalized dose response curves.

The mark [1] stands for this setting: Table A-2, PRMT5/MEP50 4 nM, 3H-SAM 75 nM, peptide 40 nM.
Setting [2] is: Table B-2, PRMT5/MEP50 4 nM, 3H-SAM 75 nM, peptide 40 nM.

SMILES strings stand for the structures. Read-outs that look alike come from different tables or passages of the source.

T1 sequence (O14744 with tags, fused parts or gaps): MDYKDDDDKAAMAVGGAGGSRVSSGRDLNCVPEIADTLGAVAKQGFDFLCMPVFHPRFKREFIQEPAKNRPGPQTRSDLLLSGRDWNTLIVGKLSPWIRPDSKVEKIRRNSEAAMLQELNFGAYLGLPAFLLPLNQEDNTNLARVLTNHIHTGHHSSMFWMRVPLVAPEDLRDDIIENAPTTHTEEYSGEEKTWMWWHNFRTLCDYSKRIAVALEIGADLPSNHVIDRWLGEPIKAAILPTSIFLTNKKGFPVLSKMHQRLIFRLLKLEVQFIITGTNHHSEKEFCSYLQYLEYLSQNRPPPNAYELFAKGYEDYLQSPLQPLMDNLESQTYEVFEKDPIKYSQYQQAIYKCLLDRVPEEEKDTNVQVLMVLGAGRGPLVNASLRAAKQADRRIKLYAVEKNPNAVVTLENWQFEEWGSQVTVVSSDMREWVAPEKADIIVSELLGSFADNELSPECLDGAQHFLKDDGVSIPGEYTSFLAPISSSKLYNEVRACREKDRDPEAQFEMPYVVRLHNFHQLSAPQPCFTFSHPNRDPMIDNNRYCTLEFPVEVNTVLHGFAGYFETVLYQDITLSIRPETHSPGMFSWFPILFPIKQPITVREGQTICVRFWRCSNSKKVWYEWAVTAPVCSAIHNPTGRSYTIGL
T1 sequence (Q9BQA1 with tags, fused parts or gaps partner limits assumed): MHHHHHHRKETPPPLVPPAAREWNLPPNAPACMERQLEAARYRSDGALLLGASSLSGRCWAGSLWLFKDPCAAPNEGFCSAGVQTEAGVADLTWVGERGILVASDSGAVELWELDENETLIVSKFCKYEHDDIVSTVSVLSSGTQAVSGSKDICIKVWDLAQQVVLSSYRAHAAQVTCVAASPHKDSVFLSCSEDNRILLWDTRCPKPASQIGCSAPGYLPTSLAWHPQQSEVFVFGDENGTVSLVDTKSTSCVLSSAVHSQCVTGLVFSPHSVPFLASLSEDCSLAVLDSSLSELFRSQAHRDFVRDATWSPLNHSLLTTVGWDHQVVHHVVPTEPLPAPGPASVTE

As to `OC(COC1CCCCCC1)CN1CCc2ccccc2C1` (centres unmarked) [Compound D309], the IC50 at PRMT5/MEP50 (Table D-2) lay in the range of 1 to 10 µM. Also, the EC50 in the assay on Z-138 cells is > 40 µM.
For `CC(C(O)COc1cccc(CNC2CCCC2)c1)N1CCc2ccccc2C1` (centres unmarked) [Compound D33], in that order: 1 to 10 µM and > 40 µM.
As for `O[C@@H](COc1cccc(CNC2CCCC2)c1)CN1CCc2ccccc2C1` [Compound D23], the EC50 in the assay on Z-138 cells was 10 to 40 µM.
With `OC(COC1CCNC1)CN1CCc2ccccc2C1` (centres unmarked) [Compound D306], the IC50 at PRMT5/MEP50 (Table D-2) is > 40 µM. Moreover, in the assay on Z-138 cells, the EC50 is > 40 µM.
For the molecule `OC(COCc1c(Cl)cccc1Cl)CN1CCc2ccccc2C1` (centres unmarked) [Compound D280], on PRMT5/MEP50 (Table D-2), the 50% inhibitory concentration (IC50) was in the range of 1 to 10 µM. In the assay on Z-138 cells, this molecule registered an EC50 of 10 to 40 µM.
For `COc1cccc(COCC(O)CN2CCc3ccccc3C2)c1` (centres unmarked) [Compound D288], in that order: 1 to 10 µM and > 40 µM.
`O[C@H](COc1cccc(CNC2CCCC2)c1)CN1CCc2ccccc2C1` [Compound D22] displayed an EC50 in the assay on Z-138 cells of 10 to 40 µM.
For `O=S1(=O)CCN(c2ccc(OCC(O)CN3CCc4ccccc4C3)cc2)CC1` (centres unmarked) [Compound D18], the IC50 on PRMT5/MEP50 (Table D-2) lay in the range of 1 to 10 µM. Also, the EC50 in the assay on Z-138 cells is > 20 µM.
`Cc1nn(-c2ccccc2)c(C)c1COCC(O)CN1CCc2ccccc2C1` (centres unmarked) [Compound D28]: the IC50 at PRMT5/MEP50 (Table D-2) lay in the range of 1 to 10 µM. Also, the concentration for a half-maximal effect (EC50) with Z-138 cells was > 40 µM.
On to `COc1cccc2c1CN(CC(O)COc1cccc(CNC3CCCC3)c1)CC2` (centres unmarked) [Compound D29], for which the IC50 at PRMT5/MEP50 (Table D-2) fell in the range of 10 to 40 µM. This molecule also yielded an EC50 in the assay with Z-138 cells of 10 to 40 µM.
For `OC(COc1cccc(CNC2CCCC2)c1)CN1CCc2ccccc2C1` (centres unmarked) [Compound D1], the IC50 on PRMT5/MEP50 (Table D-2) lay in the range of 0.101 to 1 µM. The EC50 with Z-138 cells lay within 10 to 40 µM.
For `OC(COC1Cc2ccccc2C1)CN1CCc2ccccc2C1` (centres unmarked) [Compound D301], in that order: 1 to 10 µM and > 40 µM.
For the molecule `OC(COCc1ccc(OCc2ccccc2)cc1)CN1CCc2ccccc2C1` (centres unmarked) [Compound D12], on PRMT5/MEP50 (Table D-2), the IC50 is 1 to 10 µM. Further, the EC50 in the assay with Z-138 cells is > 20 µM.
For `CCCCNCc1cccc(COCC(O)CN2CCc3ccccc3C2)c1` (centres unmarked) [Compound D286], in that order: 0.101 to 1 µM and > 20 µM.
For `O=C(c1ccc(Cn2ccc(-c3ccc(OCC(O)CN4CCc5ccccc5C4)cc3)n2)cc1)N1CCCC1` (centres unmarked) [Compound D34], in that order: 1 to 10 µM and 10 to 40 µM.
For `OC(COC1CCN(Cc2ccccc2)CC1)CN1CCc2ccccc2C1` (centres unmarked) [Compound D21], in that order: 1 to 10 µM and > 40 µM.
`CC(C)(C)OC(=O)N1CCCC(OCC(O)CN2CCc3ccccc3C2)C1` (centres unmarked) [Compound D291]: the IC50 at PRMT5/MEP50 (Table D-2) lay within 1 to 10 µM. For the same molecule, the EC50 in the assay with Z-138 cells is > 40 µM.
For the molecule `CC(C)(C)OC(=O)N1CC(OCC(O)CN2CCc3ccccc3C2)C1` (centres unmarked) [Compound D290], the 50% inhibitory concentration (IC50) on PRMT5/MEP50 (Table D-2) was 1 to 10 µM. The half-maximal effective concentration (EC50) with Z-138 cells was > 40 µM.
With `CC(C)(Oc1ccccc1)C(=O)NCC(O)CN1CCc2ccccc2C1` (centres unmarked) [Compound A25], the IC50 on PRMT5/MEP50 (setting [1]) was in the range of 0.101 to 1 µM.
Still for that read-out and setting: as for `CN(CC(O)CN1CCc2ccccc2C1)C(=O)COc1ccccc1` (centres unmarked) [Compound A5], the figure is 10 to 50 µM.
In the case of `Cn1cnc2ccc(-c3nccc(NCC(O)CN4CCc5ccccc5C4)n3)cc21` (centres unmarked) [Compound D120], the IC50 at PRMT5/MEP50 (Table D-2) was 1 to 10 µM.
In the case of `O=C(Nc1ccccn1)c1cccc(OCC(O)CN2CCc3ccccc3C2)c1` (centres unmarked) [Compound D267], at PRMT5/MEP50 (Table D-2), the IC50 fell in the range of 0.101 to 1 µM.
On the same count and under the same terms, the value for `OC(COc1cccc(-c2cccc(Oc3ccccc3)c2)c1)CN1CCc2ccccc2C1` (centres unmarked) [Compound D55] was 1 to 10 µM.
Regarding `CS(=O)(=O)Nc1ccccc1C(=O)NCC(O)CN1CCc2ccccc2C1` (centres unmarked) [Compound B27.], the IC50 at PRMT5/MEP50 (setting [2]) lay within 1 to 10 µM.
On to `OC(COc1cccc(CNC2CCOCC2)c1)CN1CCc2ccccc2C1` (centres unmarked) [Compound D5], for which the IC50 at PRMT5/MEP50 (Table D-2) was in the range of 0.101 to 1 µM.
In the case of `O=C(NCC(O)CN1CCc2ccccc2C1)c1cccc(-c2ccncc2)c1` (centres unmarked) [Compound B9.], the IC50 at PRMT5/MEP50 (setting [2]) is < 0.1 µM.
For `OCc1ccc(-c2cccc(OCC(O)CN3CCc4ccccc4C3)c2)cc1` (centres unmarked) [Compound D73], the IC50 on PRMT5/MEP50 (Table D-2) lay within 1 to 10 µM.
The same measure, in the same setting: as for `CN(CC(O)CN1CCc2ccccc2C1)c1cccc(C(=O)NC2CCOCC2)c1` (centres unmarked) [Compound D99], the figure is 10 to 40 µM.
As for `NS(=O)(=O)c1cccc(OCC(=O)NCC(O)CN2CCc3ccccc3C2)c1` (centres unmarked) [Compound A131], on PRMT5/MEP50 (setting [1]), the IC50 lay within 1 to 10 µM.
With `O=C(Nc1cccc(OCC(O)CN2CCc3ccccc3C2)c1)c1cnco1` (centres unmarked) [Compound D158], the IC50 on PRMT5/MEP50 (Table D-2) fell in the range of 1 to 10 µM.
The same measure, in the same setting: as for `CN(C(=O)c1cocn1)c1cccc(OCC(O)CN2CCc3ccccc3C2)c1` (centres unmarked) [Compound D198], the figure is 10 to 40 µM.
